Columns and labels:
Leukotriene B4 receptor = Leukotriene B4 receptor (Homo sapiens, UniProt Q9NPC1+Q15722); assay: LTB4 receptor binding from radioligand binding assay using human intact neutrophils PMN
[1] = LTB4 receptor binding from radioligand binding assay using guinea pig spleen cell membrane
[2] = target: T1, Leukotriene B4 receptor 1 (Homo sapiens, UniProt Q15722); assay: Compound was evaluated for LTB4 receptor binding, obtained from radioligand binding assay using human intact neutrophils PMN
[3] = target: T1, Leukotriene B4 receptor 1; assay: Compound was evaluated for LTB4 receptor binding obtained from radioligand binding assay using human intact neutrophils PMN; No activity

T1 sequence (Q15722 whole entry): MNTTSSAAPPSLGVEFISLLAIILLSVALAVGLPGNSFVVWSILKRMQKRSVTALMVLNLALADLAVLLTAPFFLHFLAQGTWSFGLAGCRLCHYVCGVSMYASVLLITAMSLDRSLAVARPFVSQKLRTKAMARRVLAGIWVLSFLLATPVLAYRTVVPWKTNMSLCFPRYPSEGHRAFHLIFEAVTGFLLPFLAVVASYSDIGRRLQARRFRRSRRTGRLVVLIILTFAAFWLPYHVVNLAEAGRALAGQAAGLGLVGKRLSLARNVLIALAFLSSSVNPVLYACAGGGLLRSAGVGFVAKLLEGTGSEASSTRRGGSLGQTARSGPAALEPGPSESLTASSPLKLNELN

Row | Structure (SMILES) | IC50 (Leukotriene B4 receptor) | IC50 [1] | IC50 [2] | IC50 [3]
1 | CN(CCc1ccccc1)C(=O)Cc1cc(C(=O)O)c(OCc2ccccc2)c2ccccc12 | 80 nM | 6.5 nM | – | –
2 | CN(CCc1ccccc1)C(=O)Cn1cc(/C=C/C(=O)O)c2ccc(OCc3ccccc3)cc21 | – | > 300 nM | – | –
3 | CN(CCc1ccccc1)C(=O)Cc1cc(CCC(=O)O)cc2c(-c3ccccc3)cccc12 | 40 nM | 3.5 nM | – | –
4 | C/C(=C\c1cn(CC(=O)N(C)CCc2ccccc2)c2ccc(OCc3ccccc3)cc12)C(=O)O | 11 nM | 5 nM | – | –
5 | CN(CCc1ccccc1)C(=O)Cn1cc(/C=C/C=C/C(=O)O)c2cc(OCc3ccccc3)ccc21 | 19 nM | 8 nM | – | –
6 | CN(CCc1ccccc1)C(=O)Cc1cc(CCC(=O)O)cc2c(OCc3ccccc3)cccc12 | – | 10 nM | – | –
7 | CC/C(=C\c1cn(CC(=O)N(C)CCc2ccccc2)c2ccc(OCc3ccccc3)cc12)C(=O)O | 7.6 nM | 1.3 nM | – | –
8 | CN(CCc1ccccc1)C(=O)Cn1cc(/C=C/C2N=NN=N2)c2cc(OCc3ccccc3)ccc21 | 19 nM | 4.5 nM | – | –
9 | CN(CCc1ccccc1)C(=O)Cc1cc(C(=O)O)cc2cc(OCc3ccccc3)ccc12 | 7.75 nM | 1.07 nM | – | –
10 | CN(CCc1ccccc1)C(=O)Cn1cc(CC(=O)O)c2cc(OCc3ccccc3)ccc21 | – | 30 nM | – | –
11 | CN(CCc1ccccc1)C(=O)Cn1cc(/C=C/C(=O)O)c2cc(OCc3ccccc3)ccc21 | 53 nM | 4.3 nM | – | –
12 | CN(CCc1ccccc1)C(=O)Cn1c(C(=O)O)cc2cc(OCc3ccccc3)ccc21 | 11.2 nM | 2.5 nM | – | –
13 | CN(CCc1ccccc1)C(=O)Cc1cc(CCCCC(=O)O)cc2c(OCc3ccccc3)cccc12 | 100 nM | 2.8 nM | – | –
14 | Cc1c(C(=O)O)c2cc(OCc3ccccc3)ccc2n1CC(=O)N(C)CCc1ccccc1 | 90 nM | 5 nM | – | –
15 | CC/C(=C\c1cc(CC(=O)N(C)CCc2ccccc2)c2cccc(OCc3ccccc3)c2c1)C(=O)O | 50 nM | 0.8 nM | – | –
16 | CN(CCc1ccccc1)C(=O)Cc1cc(/C=C/C(=O)O)cc2c(Oc3ccccc3)cccc12 | 20 nM | 2 nM | – | –
17 | CN(CCc1ccccc1)C(=O)Cc1cc(/C=C/C(=O)O)cc2c(-c3ccccc3)cccc12 | 50 nM | 1 nM | – | –
18 | CN(O)C(=O)c1cc(CC(=O)N(C)CCc2ccccc2)c2cccc(OCc3ccccc3)c2c1 | – | – | 60 nM | –
19 | CN(CCc1ccccc1)C(=O)Cc1cc(/C=C/C(=O)O)cc2c(OCc3ccccc3)cccc12 | 3.55 nM | 0.58 nM | – | –

Row | Structure (SMILES) | IC50 (Leukotriene B4 receptor) | IC50 [1] | IC50 [2] | IC50 [3]
20 | CN(CCc1ccccc1)C(=O)Cc1cc(C(=O)O)cc2c(-c3ccccc3)cccc12 | 8.25 nM | 0.45 nM | – | –
21 | CN(CCc1ccccc1)C(=O)Cn1cc(CCC(=O)O)c2cc(OCc3ccccc3)ccc21 | – | 40 nM | – | –
22 | CN(CCc1ccccc1)C(=O)Cn1cc(C(C(=O)O)c2ccccc2)c2c(OCc3ccccc3)cccc21 (stereo not drawn) | 19 nM | 2.5 nM | – | –
23 | CCCCCOc1cccc2c(CC(=O)N(C)CCc3ccccc3)cc(C(=O)O)cc12 | 9 nM | 0.6 nM | – | –
24 | CC/C(=C\c1cn(CC(=O)N(C)CCc2ccccc2)c2cccc(OCc3ccccc3)c12)C(=O)O | 35 nM | 1.5 nM | – | –
25 | C/C(=C\c1cn(CC(=O)N(C)CCc2ccccc2)c2cccc(OCc3ccccc3)c12)C(=O)O | 24.5 nM | 2.33 nM | – | –
26 | CN(CCc1ccccc1)C(=O)Cn1cc(/C=C/C(=O)O)c2cccc(OCc3ccccc3)c21 | – | > 300 nM | – | Not Active
27 | CN(CCc1ccccc1)C(=O)Cc1cc(CCC(=O)O)cc2c(Oc3ccccc3)cccc12 | 250 nM | 20 nM | – | –
28 | CN(CCc1ccccc1)C(=O)Cn1cc(C(=O)O)c2cc(OCc3ccccc3)ccc21 | 26.3 nM | 1.5 nM | – | –
29 | CN(CCc1ccccc1)C(=O)Cc1cc(/C=C/C2N=NN=N2)cc2c(OCc3ccccc3)cccc12 | 5 nM | 3 nM | – | –
30 | COc1cccc2c(CC(=O)N(C)CCc3ccccc3)cc(C(=O)O)cc12 | 700 nM | > 30 nM | – | –
31 | CN(CCc1ccccc1)C(=O)Cc1cc(/C=C/C=C/C(=O)O)cc2c(OCc3ccccc3)cccc12 | 8 nM | 1 nM | – | –
32 | CN(CCc1ccccc1)C(=O)Cn1cc(C=O)c2cc(OCc3ccccc3)ccc21 | – | – | > 300 nM | –
33 | CN(CCc1ccccc1)C(=O)Cn1cc(C(=O)c2cccc(C(=O)O)c2)c2cc(OCc3ccccc3)ccc21 | 8.5 nM | 12 nM | – | –
34 | CN(CCc1ccccc1)C(=O)Cn1cc(/C=C/C(=O)O)c2c(OCc3ccccc3)cccc21 | 16.5 nM | 1 nM | – | –
35 | CN(CCc1ccccc1)C(=O)Cn1cc(/C=C/C=C/C(=O)O)c2c(OCc3ccccc3)cccc21 | 15 nM | 1.5 nM | – | –
36 | CN(CCc1ccccc1)C(=O)Cn1cc(C(=O)O)c2c(OCc3ccccc3)cccc21 | 20.3 nM | 1.45 nM | – | –
37 | CN(CCc1ccccc1)C(=O)Cc1cc(C(=O)O)cc2c(Oc3ccccc3)cccc12 | 25 nM | 1.5 nM | – | –

Reference: ChEMBL document CHEMBL1129646, “Structure-activity relationships study of two series of leukotriene B4 antagonists: novel indolyl and naphthyl compounds substituted with a 2-[methyl(2-phenethyl)amino]-2-oxoethyl side chain” (J Med Chem, 1996)
